Blank lines part the entries; values can stand above or below the compound they belong to.
Experiments:
hTRPC7-YFP = test system: T1, hTRPC7-YFP; test: Fluo-4 Ca2+ influx assay in HEK293 cells stably expressing TRPC7; assay type: cell-based, human; settings: fluo-4 concentration response analysis
T1 construct: expressed in transfected cells

TRPC3 = biological target: T2, TRPC3 (Homo sapiens, UniProt Q13507); test: Fluo-4 Ca2+ influx assay in HEK TRPC3-YFP cell suspensions; assay type: cell-based; settings: for TRPC3 activation in concentration response analysis: fluo-4, up to 200 µM, compared with solvent (DMSO); for effect of preincubation on responses to artemisinin (1–200 µM): 10 µM for 5 min; for IC50: inhibitor 5 min, then 50 µM artemisinin, fluo-4, read-out: IC50 for inhibition of artemisinin-induced increases in [Ca2+]i
T2 construct: expressed in transfected cells
T2 sequence (Q13507 1-848 isoform Q13507-3): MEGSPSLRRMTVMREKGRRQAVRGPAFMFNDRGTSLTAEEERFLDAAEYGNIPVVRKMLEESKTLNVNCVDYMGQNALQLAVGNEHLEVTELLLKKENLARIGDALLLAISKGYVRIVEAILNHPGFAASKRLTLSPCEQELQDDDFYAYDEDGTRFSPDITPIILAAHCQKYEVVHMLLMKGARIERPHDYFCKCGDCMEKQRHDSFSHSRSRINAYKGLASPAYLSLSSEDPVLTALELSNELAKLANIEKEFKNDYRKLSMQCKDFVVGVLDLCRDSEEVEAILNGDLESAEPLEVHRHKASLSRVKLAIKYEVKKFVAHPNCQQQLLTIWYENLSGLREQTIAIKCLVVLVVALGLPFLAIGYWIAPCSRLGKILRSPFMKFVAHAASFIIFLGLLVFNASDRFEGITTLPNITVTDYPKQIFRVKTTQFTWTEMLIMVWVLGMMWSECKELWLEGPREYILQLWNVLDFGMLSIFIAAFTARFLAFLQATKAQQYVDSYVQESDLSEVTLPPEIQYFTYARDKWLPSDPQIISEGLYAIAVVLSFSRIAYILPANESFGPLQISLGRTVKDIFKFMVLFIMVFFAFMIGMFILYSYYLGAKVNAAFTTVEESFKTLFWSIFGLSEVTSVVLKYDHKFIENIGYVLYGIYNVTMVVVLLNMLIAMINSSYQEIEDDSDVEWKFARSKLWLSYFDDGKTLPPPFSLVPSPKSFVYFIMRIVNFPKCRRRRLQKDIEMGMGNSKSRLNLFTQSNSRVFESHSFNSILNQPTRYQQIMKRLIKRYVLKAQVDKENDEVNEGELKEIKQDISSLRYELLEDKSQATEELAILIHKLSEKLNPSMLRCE

[1] = test system: PC12 cells (native TRPC3 channel complexes); test: Whole-cell patch-clamp recordings in PC12 cells; assay type: cell-based, rat; settings: 20 µM CBN 2910-0498, 10 µM SAR7334, or 10 µM GSK417654A
Procedure: The recordings of TRPC3, TRPC6, or TRPC7 membrane currents in HEK293 or PC12 cells were realized by using a Multiclamp 700B amplifier with a Digidata 1440A digitizer controlled by the PClamp 10 software (all Molecular Devices, Sunnyvale, CA, U.S.A.). Recordings were obtained at room temperature either in the whole-cell or in an outside-out configuration as indicated. Cells were seeded as described above, but at lower density, mounted in a chamber (Warner Instruments, Hamden, CT; U.S.A.), placed onto the stage of an inverted microscope, and perfused with required solution. The standard extracellular solution contained 140 mM NaCl, 5 mM CsCl, 2 mM MgCl2, 1 mM CaCl2, 10 mM HEPES, and 0.035% BSA adjusted to pH 7.4 with NaOH. The composition of standard intracellular solution was 140 mM CsCl, 1 mM MgCl2, 5 mM EGTA, and 10 mM HEPES adjusted to pH 7.25 with CsOH; the osmolarity was 295 mOsm l^−1. In outside-out measurements, the pipette solution contained 5 mM EGTA and 1.1 mM CaCl2 to achieve a calculated free Ca^2+ concentration of 100 nM.
Patch pipettes were pulled from borosilicate glass capillaries BG150F-8P (Science Products, Hofheim, Germany) with a PIP6 pipette puller (HEKA Elektronik, Lambrecht, Germany). […] In all whole-cell measurements, the series resistance was lower than 13 MΩ, and compensated by 70%. If the access was unstable during the experiment (increase in series resistance by more than 15% at the end of the experiment), the cell was omitted from the analysis. To record current/voltage (I/V) curves, voltage ramps (400 mV s^−1) ranging from –100 to +100 mV were applied. Currents were filtered at 3 kHz with a four-pole Bessel filter and sampled at 10 kHz. […]
Figure 9 Artemisinin-induced ionic currents in HEK293 cells and in PC12 cells are sensitive to established TRPC3 inhibitors. […] Concentration–response curves were normalized to responses measured without an inhibitor (controls), and IC50 values were obtained by fitting a four-parameter Hill equation to the data. […]

[2] = test system: T3, heteromeric TRPC3:TRPC6 channel complexes; test: Fluo-4 Ca2+ influx assay in HEK293 cells co-expressing TRPC3 and TRPC6; assay type: cell-based; settings: fluo-4 concentration response analysis
T3 construct: expressed in transfected cells; host or cells: HEK293, stably co-transfected
Procedure: All fluorometric Ca^2+ assays were done in (4-(2-hydroxyethyl)-1-piperazineethanesulfonic acid) (HEPES)-buffered saline (HBS), containing 132 mM NaCl, 6 mM KCl, 1 mM MgCl2, 1 mM CaCl2, 5.5 mM D-glucose, 10 mM HEPES, and 0.035% bovine serum albumin (BSA) adjusted to pH 7.4 with NaOH. For measurements in Ca^2+-free bath solutions, a modified HBS without CaCl2 was supplemented with 200 µM ethylene glycol-bis(β-aminoethyl ether)-N,N,N′,N′-tetraacetic acid (EGTA).
The primary compound screen and the generation of concentration response curves in HEK293 cells or in PC12 cells were performed by using a custom-made fluorescence plate imager built into a robotic liquid handling station equipped with a 96-tip multichannel head (Freedom Evo 150, Tecan, Männedorf, Switzerland) as described previously. To this end, trypsinized cell suspensions were loaded with 4 µM fluo-4/AM (Invitrogen, Thermo Fisher Scientific, Waltham, MA, U.S.A.) in cell culture medium for 30 min at 37 °C. After brief centrifugation, cells were resuspended in HBS and dispensed into black pigmented, clear-bottom 384-well plates (Greiner µClear, Frickenhausen, Germany). Plates were mounted on the imager, and fluorescence signals were recorded with a cooled Zyla 5.5 camera (Andor, Belfast, UK) through a 515 nm long pass filter. The image acquisition was controlled by the µManager software (http://micro-manager.org), and excitation with a LED array (470 nm) was synchronized by the camera trigger output. After baseline recording for about 60 s, the compound libraries or serial dilutions of activators or inhibitors were added to the cells by the liquid handling device. When inhibitory potencies were evaluated, a second pipetting step with the respective reference agonist was performed. Fluorescence intensities were calculated from image stacks for each well with ImageJ (National Institutes of Health, Bethesda, MD, U.S.A.), corrected for background signals, and normalized to the initial intensities (F/F0). […]

[3] = test system: PC12 cells (native TRPC3 channel complexes); test: [Ca2+]i analysis in fura-2-loaded PC12 cells; assay type: cell-based, rat; settings: artemisinin 50 or 100 µM; 6–12 experiments for each compound
Procedure: Human embryonic kidney 293 (HEK293) cells were stably transfected with expression plasmids that encode hTRPC3-YFP, hTRPC6-YFP, hTRPC7-YFP, mTRPC4ß-YFP, rTRPV1-CFP, rTRPV2-YFP, rTRPV3-YFP, mTRPV4-YFP, or hTRPM2 as previously described. Cell lines were cultured in Earle’s minimum essential medium (MEM; Sigma, Munich, Germany), supplemented with 10% fetal calf serum (Gibco Thermo Fisher Scientific, Darmstadt, Germany), 2 mM L-glutamine, and required concentrations of geneticin in a range of 0.4–1 mg/mL. A HEK293mTRPC5-YFP cell line was maintained and induced as described before. The HEK293mTRPM3α2 cells (expressing the Ca^2+-permeable main variant of mouse TRPM3) were kindly provided by Johannes Oberwinkler (Marburg, Germany), the HEK293hTRPA1 cells that constitutively overexpress the human TRPA1 were from Dr. Natalie Tigue and Dr. Steve Moore (GlaxoSmithKline, Harlow, UK). With the exception of mTRPC5-YFP, all cell lines constitutively overexpress the respective TRP channel under the control of a cytomegalovirus (CMV) promoter. A HEK cell line stably expressing the human protein kinase C (PKC) ε C-terminally tagged with YFP [13] was generated and maintained in the same medium as HEKTRPC3-YFP cells. PC12 cells were cultured in RPMI-1640 (Sigma, Munich, Germany) with 10% fetal calf serum, 2 mM L-glutamine, 100 U/mL penicillin, and 0.1 mg/mL streptomycin. For electrophysiological and single cell [Ca^2+]i imaging experiments, PC12 cells were plated onto 25 mm poly-L-lysine-coated glass coverslips and measured 24–48 h after seeding. All cells were maintained at 37 °C in a 5% CO2-aerated, humidified atmosphere.
The microfluorometric single-cell [Ca^2+]i analysis was performed on an inverted epifluorescence microscope (Carl Zeiss, Jena, Germany) and calibrated as described. Cells were grown on 25 mm coverslips and loaded with 4 µM fura-2/AM (AAT Bioquest, Sunnyvale, CA, U.S.A.) in HBS containing 0.2% BSA for 30 min at 37 °C. After gently rinsing the coverslips with HBS, coverslips were mounted in a bath chamber and superfused with HBS containing 0.035% BSA.
Figure 7 Expression of TRPC3 and functional responses to TRPC activators in PC12 rat pheochromocytoma cells. (A) Immunofluorescence analysis of TRPC3 (green channel) and tyrosine hydroxylase (TH; red channel) expression in PC12 cells. Nuclei were counterstained with DAPI (blue channel). Bars: 20 µm scale. Time course of the [Ca^2+]i (B) and averaged basal and peak [Ca^2+]i values (C) were recorded by microfluorometric analysis in fura-2-loaded PC12 cells grown on glass coverslips. […] Data represent averages (B) or means and S.D. (C) of 6–12 imaging experiments for each compound. Significant increases compared to the respective basal values are indicated (#: p < 0.05; Student´s t-test for paired data).

SMILES: CCO[C@H]1O[C@@H]2O[C@@]3(C)CC[C@H]4[C@H](C)CC[C@@H]([C@H]1C)[C@@]24OO3 [arteether]
- effect on TRPC7 (hTRPC7-YFP): inhibited
- TRPC3 activation in concentration response analysis (TRPC3): did not exert signals that were significantly stronger than responses to the solvent

SMILES: O=C(NCCCCCCNC(=O)ON=C1CCCCC1)ON=C1CCCCC1 [RHC 80267]
- effect of preincubation on responses to artemisinin (1–200 µM) (TRPC3): did not increase the responses

SMILES: COc1ccc(Nc2nc(C(=O)N3CCc4ccccc4C3)cs2)cc1 [GSK417654A]
- effect on ionic currents stimulated by 50 µM artemisinin in PC12 cells [1]: rapidly reversed
- IC50 (TRPC3): 0.5 µM

SMILES: C[C@H]1[C@H](OC(=O)CCC(=O)O)O[C@@H]2O[C@@]3(C)CC[C@H]4[C@H](C)CC[C@@H]1[C@@]24OO3 [artesunate]
- TRPC3 activation in concentration response analysis (TRPC3): did not exert signals that were significantly stronger than responses to the solvent

SMILES: CO[C@H]1O[C@@H]2O[C@@]3(C)CC[C@H]4[C@H](C)CC[C@@H]([C@H]1C)[C@@]24OO3 [artemether]
- effect on TRPC7 (hTRPC7-YFP): inhibited
- response of cells stably transfected with both TRPC3 and TRPC6 [2]: in a very similar fashion as HEKTRPC3-YFP cells
- EC50 (TRPC3; fluo-4, HEK TRPC3-YFP cell suspensions, read-out: potency to activate Ca2+ entry through TRPC3): 14.8 µM

SMILES: O=C(c1cc2c(s1)CCCCC2)N1CCC(n2c(=O)[nH]c3ccccc32)CC1 [GSK-1702934A]
- [Ca2+]i in fura 2-loaded PC12 cells [3]: significant increases in [Ca^2+]i

Further lines, with some results ahead:

- effect of preincubation on responses to artemisinin (1–200 µM) (TRPC3): did not increase the responses
SMILES: O=c1c2ccccc2[nH]c(=S)n1CCN1CCC(=C(c2ccc(F)cc2)c2ccc(F)cc2)CC1 [R59949]

- IC50 (TRPC3): 1.4 µM
SMILES: N#Cc1ccc(O[C@@H]2c3ccccc3C[C@H]2N2CCC[C@@H](N)C2)c(Cl)c1 [SAR7334]
- effect on ionic currents stimulated by 50 µM artemisinin in PC12 cells [1]: rapidly reversed

From PMC7016953 (Cells, 2020)
